Results: US20120204273A1, “COMPOSITIONS RELATING TO A PHOSPHOPROTEIN AND METHODS OF USE” (SANFORD-BURNHAM MEDICAL RESEARCH INSTITUTE, priority 2010, published 2012)

Test system: 3T3-L1 adipocytes
Assay: GSV-PM fusion in live adipocytes (IRAP-pHluorin, TIRF microscopy)
Format: cell-based, mouse
Source text: FIG. 3, panels A-C, show knockdown of CDP138 in live 3T3-L1 adipocytes inhibits insulin-stimulated membrane fusion between GLUT4 storage vesicles (GSV) and the PM, but not GLUT4-EGFP trafficking to the TIRF zone. (A): Schematic illustration of the molecular probes and TIRF microcopy-based live cell assays for GLUT4 trafficking and GSV-PM fusion. (B) and (C): The effect of CDP138 knockdown on insulin-stimulated IRAP-pHluorin insertion into the PM (B), and accumulation of GLUT4-EGFP in the TIRF zone (C). Adipocytes (day 4) were transfected by electroporation with plasmid DNA encoding IRAP-pHluorin or GLUT4-EGFP, together with either the scrambled siRNA or smartPool siRNA against mouse 5730419I09Rik. Cells were reseeded on glass-bottomed dishes for 72 hrs, serum starved for 2 hr then stimulated with 100 nM insulin for 30 min. Analyses were performed in a cell warmer adapted for a Nikon TiE with fully motorized combined dual laser (488 and 561 nm). Images were acquired every 3 min immediately after addition of insulin and analyzed as described in the Supplementary Experimental Procedures. Perfect focus system and multiple points capture program (NIS Element) were used to acquire images from multiple positively transfected cells at each time point. […]
Total Internal Reflection Fluorescence (TIRF) Microscopy: Nikon (Melville, N.Y.) TI-TIRF-E, which was based on the objective lens method, was used to perform all the TIRF experiments. […] Positively transfected adipocytes were identified, and the insulin-stimulated IRAP vesicle-PM fusion events or GLUT4-EGFP trafficking to the TIRF zone were recorded every 3 min for a 30 min period using Nikon Eclipse-Ti TIRF microscope. […]
Image Analysis and Quantification: TIRF and wide field fluorescence microscopy were performed using a Nikon inverted microscope (Melville, N.Y.) with a cooled charge-coupled device camera. […]

For insulin, the “stimulation of GSV fusion with the PM in the TIRF zone” value was “significantly stimulates”.
